# Source: PubChem BioAssay (NCI)
#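 Grown in 96-well plates, cells were treated for 48 hours with each compound at five concentrations. Insufficient inhibition: endpoint recorded as highest concentration tested. GI50 marks 50% less growth. TGI marks complete inhibition of growth.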
# What was measured:
# Assay in all cases: NCI tumour cell line growth inhibition, 48 h
# HS 578T breast = tested on: HS 578T breast
# UO-31 renal = tested on: UO-31 renal
# M14 melanoma = tested on: M14 melanoma
# HOP-92 NSCLC = tested on: HOP-92 NSCLC
# NCI-H23 lung = tested on: NCI-H23 lung
# CAKI-1 renal = tested on: CAKI-1 renal
# MCF7 breast = tested on: MCF7 breast
# T-47D breast = tested on: T-47D breast
# HOP-62 NSCLC = tested on: HOP-62 NSCLC
# UACC-257 melanoma = tested on: UACC-257 melanoma
# 786-0 renal = tested on: 786-0 renal
# HCT-116 colon = tested on: HCT-116 colon
# OVCAR-8 ovarian = tested on: OVCAR-8 ovarian
# SF-295 CNS = tested on: SF-295 CNS
# SK-OV-3 ovarian = tested on: SK-OV-3 ovarian
# SK-MEL-5 melanoma = tested on: SK-MEL-5 melanoma
# NCI-H226 lung = tested on: NCI-H226 lung
# SK-MEL-2 melanoma = tested on: SK-MEL-2 melanoma
# HCC-2998 colon = tested on: HCC-2998 colon
# LOX IMVI melanoma = tested on: LOX IMVI melanoma
# RXF 393 renal = tested on: RXF 393 renal
# NCI/ADR-RES ovarian = tested on: NCI/ADR-RES ovarian
# HCT-15 colon = tested on: HCT-15 colon
# SF-539 CNS = tested on: SF-539 CNS
# MOLT-4 leukemia = tested on: MOLT-4 leukemia
# OVCAR-5 ovarian = tested on: OVCAR-5 ovarian
# K-562 leukemia = tested on: K-562 leukemia
# A549 NSCLC = tested on: A549 NSCLC
# PC-3 prostate = tested on: PC-3 prostate
# A498 renal = tested on: A498 renal
# SN12C renal = tested on: SN12C renal
# MDA-MB-231 breast = tested on: MDA-MB-231 breast
# SW-620 colon = tested on: SW-620 colon
# HT29 colon = tested on: HT29 colon
# SK-MEL-28 melanoma = tested on: SK-MEL-28 melanoma
# MDA-MB-435 = tested on: MDA-MB-435
# SNB-19 CNS = tested on: SNB-19 CNS
# IGROV1 ovarian = tested on: IGROV1 ovarian
# OVCAR-4 ovarian = tested on: OVCAR-4 ovarian
# RPMI-8226 leukemia = tested on: RPMI-8226 leukemia
# NCI-H522 lung = tested on: NCI-H522 lung
# MALME-3M melanoma = tested on: MALME-3M melanoma
# SF-268 CNS = tested on: SF-268 CNS
# NCI-H460 lung = tested on: NCI-H460 lung
# KM12 colon = tested on: KM12 colon
# UACC-62 melanoma = tested on: UACC-62 melanoma
# BT-549 breast = tested on: BT-549 breast
# COLO 205 colon = tested on: COLO 205 colon
# ACHN renal = tested on: ACHN renal
# SR leukemia = tested on: SR leukemia
# TK-10 renal = tested on: TK-10 renal
# HL-60(TB) leukemia = tested on: HL-60(TB) leukemia
# CCRF-CEM leukemia = tested on: CCRF-CEM leukemia
# OVCAR-3 ovarian = tested on: OVCAR-3 ovarian
# U251 CNS = tested on: U251 CNS
# SNB-75 CNS = tested on: SNB-75 CNS
# DU-145 prostate = tested on: DU-145 prostate
structure (smiles),measurement,setting,value
O=C1NC(=NCCCc2ccccc2)S/C1=C\c1ccc2ncccc2c1,GI50,HS 578T breast,5.11 µM
same,TGI,HS 578T breast,16 µM
same,GI50,UO-31 renal,4.06 µM
same,TGI,UO-31 renal,11.9 µM
same,GI50,M14 melanoma,9.63 µM
same,TGI,M14 melanoma,> 25 µM
same,GI50,HOP-92 NSCLC,4.22 µM
same,TGI,HOP-92 NSCLC,13.4 µM
same,GI50,NCI-H23 lung,6.06 µM
same,TGI,NCI-H23 lung,15.8 µM
same,GI50,CAKI-1 renal,5.09 µM
same,TGI,CAKI-1 renal,> 18.2 µM
same,GI50,MCF7 breast,4.11 µM
same,TGI,MCF7 breast,11.2 µM
same,GI50,T-47D breast,4.73 µM
same,TGI,T-47D breast,12.3 µM
same,GI50,HOP-62 NSCLC,5.79 µM
same,TGI,HOP-62 NSCLC,13.8 µM
same,GI50,UACC-257 melanoma,6.73 µM
same,TGI,UACC-257 melanoma,22.9 µM
same,GI50,786-0 renal,5.47 µM
same,TGI,786-0 renal,13 µM
same,GI50,HCT-116 colon,3.6 µM
same,TGI,HCT-116 colon,14.1 µM
same,GI50,OVCAR-8 ovarian,5.94 µM
same,TGI,OVCAR-8 ovarian,16.8 µM
same,GI50,SF-295 CNS,4.75 µM
same,TGI,SF-295 CNS,> 17.5 µM
same,GI50,SK-OV-3 ovarian,5.33 µM
same,TGI,SK-OV-3 ovarian,12.2 µM
same,GI50,SK-MEL-5 melanoma,4.63 µM
same,TGI,SK-MEL-5 melanoma,9.8 µM
same,GI50,NCI-H226 lung,4.2 µM
same,TGI,NCI-H226 lung,10.7 µM
same,GI50,SK-MEL-2 melanoma,4.96 µM
same,TGI,SK-MEL-2 melanoma,9.67 µM
same,GI50,HCC-2998 colon,8.09 µM
same,TGI,HCC-2998 colon,> 25 µM
same,GI50,LOX IMVI melanoma,5.12 µM
same,TGI,LOX IMVI melanoma,14.6 µM
same,GI50,RXF 393 renal,3.89 µM
same,TGI,RXF 393 renal,10.4 µM
same,GI50,NCI/ADR-RES ovarian,6.5 µM
same,TGI,NCI/ADR-RES ovarian,17.1 µM
same,GI50,HCT-15 colon,2.9 µM
same,TGI,HCT-15 colon,> 25 µM
same,GI50,SF-539 CNS,4.05 µM
same,TGI,SF-539 CNS,9.49 µM
same,GI50,MOLT-4 leukemia,7.31 µM
same,TGI,MOLT-4 leukemia,18.9 µM
same,GI50,OVCAR-5 ovarian,8.09 µM
same,TGI,OVCAR-5 ovarian,> 25 µM
same,GI50,K-562 leukemia,9.12 µM
same,TGI,K-562 leukemia,> 25 µM
same,GI50,A549 NSCLC,4.68 µM
same,TGI,A549 NSCLC,13.8 µM
same,GI50,PC-3 prostate,5.62 µM
same,TGI,PC-3 prostate,15.9 µM
same,GI50,A498 renal,3.81 µM
same,TGI,A498 renal,8.09 µM
same,GI50,SN12C renal,6.13 µM
same,TGI,SN12C renal,20.9 µM
same,GI50,MDA-MB-231 breast,8.12 µM
same,TGI,MDA-MB-231 breast,> 22.5 µM
same,GI50,SW-620 colon,6.37 µM
same,TGI,SW-620 colon,> 21.5 µM
same,GI50,HT29 colon,6.55 µM
same,TGI,HT29 colon,> 21.4 µM
same,GI50,SK-MEL-28 melanoma,6.51 µM
same,TGI,SK-MEL-28 melanoma,21.1 µM
same,GI50,MDA-MB-435,5.81 µM
same,TGI,MDA-MB-435,> 18 µM
same,GI50,SNB-19 CNS,3.69 µM
same,TGI,SNB-19 CNS,> 22.4 µM
same,GI50,IGROV1 ovarian,5.49 µM
same,TGI,IGROV1 ovarian,14.1 µM
same,GI50,OVCAR-4 ovarian,3.72 µM
same,TGI,OVCAR-4 ovarian,13.6 µM
same,GI50,RPMI-8226 leukemia,5.52 µM
same,TGI,RPMI-8226 leukemia,14.6 µM
same,GI50,NCI-H522 lung,4.47 µM
same,TGI,NCI-H522 lung,9.17 µM
same,GI50,MALME-3M melanoma,7.43 µM
same,TGI,MALME-3M melanoma,19.3 µM
same,GI50,SF-268 CNS,5.39 µM
same,TGI,SF-268 CNS,12.5 µM
same,GI50,NCI-H460 lung,4.08 µM
same,TGI,NCI-H460 lung,11.8 µM
same,GI50,KM12 colon,8.84 µM
same,TGI,KM12 colon,> 25 µM
same,GI50,UACC-62 melanoma,4.65 µM
same,TGI,UACC-62 melanoma,10.9 µM
same,GI50,BT-549 breast,4.58 µM
same,TGI,BT-549 breast,10.4 µM
same,GI50,COLO 205 colon,6.98 µM
same,TGI,COLO 205 colon,> 20.7 µM
same,GI50,ACHN renal,5.08 µM
same,TGI,ACHN renal,15.6 µM
same,GI50,SR leukemia,3.73 µM
same,TGI,SR leukemia,16.5 µM
same,GI50,TK-10 renal,4.15 µM
same,TGI,TK-10 renal,10.5 µM
same,GI50,HL-60(TB) leukemia,5.49 µM
same,TGI,HL-60(TB) leukemia,16 µM
same,GI50,CCRF-CEM leukemia,7.11 µM
same,TGI,CCRF-CEM leukemia,> 25 µM
same,GI50,OVCAR-3 ovarian,4.81 µM
same,TGI,OVCAR-3 ovarian,10.6 µM
same,GI50,U251 CNS,2.9 µM
same,TGI,U251 CNS,10.3 µM
same,GI50,SNB-75 CNS,2.3 µM
same,TGI,SNB-75 CNS,6.69 µM
same,GI50,DU-145 prostate,5.89 µM
same,TGI,DU-145 prostate,18 µM
